Patent publication US4458077A, “Heterocyclic anti-ulcer agents” (American Home Products Corporation, priority 1982, dated 1984)
Like-named read-outs stand apart in the source and are kept apart here.

Tests used:
[1] = tested on: gastric acid secretion; assay: gastric secretion in the pylorus-ligated rat (modified Shay procedure); type: in vivo; conditions: 32 mg/kg, interduodenally (i.d.), pylorus-ligated male Charles River rats, 4 hours after ligation
Description: (§1) The results for some of the compounds of the invention in these procedures is presented at the end of the following examples, which will serve to illustrate the present invention.
The procedure for testing gastric secretion in the rat, a modification of the procedure of Shay et al., Gastroenterology, 26, 906-13 (1954) is carried out as follows:
Male Charles River rats weighing 200-300 grams are deprived of food but not water for 24 hours prior to use. Water is, however, withheld during the experiment. The rats are weighed, anesthetized, and the pylorus ligated according to the method of Shay et al. Treatment or vehicle control is then administered interduodenally (i.d.). Rats are housed 2/cage and sacrificed with CO2 four hours after ligation. The stomachs are removed, rinsed, and contents emptied into a graduated centrifuge tube. The tubes are centrifuged for 20 minutes at 2,000 RPM and the volume of gastric juice recorded. Any samples obviously contamined by feces, food or hemolysis are eliminated. An aliquot of each is frozen for later analysis of Na^+, K^+ and Cl^- concentration. The pH is measured and 1 ml. of gastric juice is titrated with 0.1N NaOH to a pH of 7.0-7.4. Titrable acid output is calculated in microequivalents and the percent inhibition of acid output is calculated as follows: [formula]

[2] = biological target: H2 histamine receptors (Cavia porcellus, UniProt P47747); assay: guinea pig heart atrium test: inhibition of histamine-induced positive chronotropic response (H2 antagonist activity)
Description: as §1
The guniea pig heart atrium test is carried out as follows:
A guinea pig right atrium is suspended at 1 g. tension (isometric) in a thermostatically controlled (32° C.) tissue bath (10 ml) containing oxygenated (95% O2; 5% CO2) Krebs-Haenseleit buffer (pH 7.4). The tissue is allowed to stabilize over 1 hour. Individual contractions are recorded with a force-displacement transducer through a strain gauge coupler. A control dose-response curve to histamine in the above described tissue bath is obtained after which the tissue is washed 3 times and allowed to re-equilibrate to basal rate. The test compound is added to the tissue bath at the desired final concentration. Thirty minutes after addition of the compound, a fresh histamine dose response curve is again obtained. Then the response to histamine in the presence of antagonist is compared to the histamine control response. This procedure is repeated, using fresh tissues, for each concentration of antagonist tested. The result is expressed as the apparent dissociation constant (pA2) of the H2 antagonist as determined by standard procedures. Cimetidine is used as the standard for this test.

[3] = background, cited from earlier work
[4] = apparent dissociation constant (pA2) vs histamine, guinea pig right atrium, 32° C, pH 7.4, 30 min after compound, three experiments, read-out: pA2 Value (converted)

H2 histamine receptors, sequence (P47747 whole entry): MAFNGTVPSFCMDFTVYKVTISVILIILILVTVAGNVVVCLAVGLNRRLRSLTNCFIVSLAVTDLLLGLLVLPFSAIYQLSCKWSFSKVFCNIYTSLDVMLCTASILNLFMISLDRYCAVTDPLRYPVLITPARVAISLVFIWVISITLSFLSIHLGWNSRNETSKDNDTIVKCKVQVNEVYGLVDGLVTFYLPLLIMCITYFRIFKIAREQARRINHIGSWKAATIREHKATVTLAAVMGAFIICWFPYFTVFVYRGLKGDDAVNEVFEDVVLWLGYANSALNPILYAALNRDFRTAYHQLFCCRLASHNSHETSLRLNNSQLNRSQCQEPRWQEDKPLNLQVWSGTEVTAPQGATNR

CNC(=C[N+](=O)[O-])NOCCCc1csc(NC(=N)N)n1 [Example 5, [4-[3-[[[1-(methylamino)-2-nitroethenyl]amino]oxy]propyl]-2-thiazolyl]guanidine]
% Inhibition (of acid output) [1]: 72% | Kb ([2]; printed in pA2 column, footnote *: KB value, result of only one experiment, guinea pig right atrium vs histamine, read-out: KB value): 108 nM

CNC(=C[N+](=O)[O-])NOCCOCc1ccc(CN(C)C)o1 [Example 2, N-[2-[[5-[(dimethylamino)methyl]-2-furanyl]methoxy]ethoxy]-N'-methyl-2-nitro-1,1-ethenediamine, ethanedioate]
Kb [2, 4]: 9120 nM

CN/C(=N/CCSCc1nc[nH]c1C)NC#N [cimetidine]
confusional states (limitation) ([3]; elderly patients): a tendency to cause confusional states in elderly patients | anti-androgenic activity (limitation) ([3]; patients): anti-androgenic activity

CNC(=S)NOCCOCc1ccc(CN(C)C)o1 [Example 4, N-[2-[[5-[(dimethylamino)methyl]-2-furanyl]methoxy]ethoxy]-N'-methyl-thiourea, 1/2 hydrate]
Kb [2, 4]: 1260 nM
